Measured values: US7847108B2, “Oxathiin carboxamides” (Bayer CropScience AG, priority 2003, dated 2010)

assay: logP determination by HPLC on reversed-phase column (EEC Directive 79/831 Annex V.A8); type: physicochemical; conditions: Table 1 logP / m.p., C18, 43° C., acidic range (pH 2.3)
Procedure: The given logP values were determined in accordance with EEC Directive 79/831 Annex V.A8 by HPLC (High Performance Liquid Chromatography) on a reversed-phase column (C 18). Temperature: 43° C. […] Calibration was carried out using unbranched alkan-2-ones (having 3 to 16 carbon atoms) with known logP values (determination of the logP values by the retention times using linear interpolation between two successive alkanones).

| Structure (SMILES) | logP |
| --- | --- |
| CC(C)CC(C)c1ccccc1NC(=O)C1=C(C(F)(F)F)OCC(C)S1 (centres unmarked) [Example 3] | 4.24 |
| CC1COC(C(F)(F)F)=C(C(=O)Nc2ccccc2C(C)CC(C)(C)C)S1 (centres unmarked) [Example 4] | 4.53 |
| O=C(Nc1ccccc1C1CCCCC1)C1=C(C(F)(F)F)OCCS1 [Example 28] | 3.69 |
| CC(CC1CCCCC1)c1ccccc1NC(=O)C1=C(C(F)(F)F)OCCS1 (centres unmarked) [Example 31] | 4.71 |
| CCCC(C)c1ccccc1NC(=O)C1=C(C(F)(F)F)OCCS1 (centres unmarked) [Example 39] | 3.63 |
| CCCCCCCCC(C)c1ccccc1NC(=O)C1=C(C(F)(F)F)OCCS1 (centres unmarked) [Example 42] | 5.48 |
| CCCCCC(C)c1ccccc1NC(=O)C1=C(C(F)(F)F)OCCS1 (centres unmarked) [Example 48] | 4.34 |
| CC(c1ccccc1NC(=O)C1=C(C(F)(F)F)OCCS1)C1CCCCC1 (centres unmarked) [Example 49] | 4.31 |
| CC(C)CC(C)c1cc(F)ccc1NC(=O)C1=C(C(F)(F)F)OCCS1 (centres unmarked) [Example 50] | 3.94 |
| CCCC(C)c1cc(F)ccc1NC(=O)C1=C(C(F)(F)F)OCCS1 (centres unmarked) [Example 52] | 3.67 |
| CCC(C)CC(C)c1ccccc1NC(=O)C1=C(C(F)(F)F)OCCS1 (centres unmarked) [Example 54] | 4.25 |
| CC(CC1CC1(Cl)Cl)c1ccccc1NC(=O)C1=C(C(F)(F)F)OCCS1 (centres unmarked) [Example 55] | 3.92 |
| CCC(C)(C)CC(C)c1ccccc1NC(=O)C1=C(C(F)(F)F)OCCS1 (centres unmarked) [Example 58] | 4.48 |
| CC1CSC(C(=O)Nc2ccccc2C2CC3CCC2C3)=C(C(F)(F)F)O1 (centres unmarked) [Example 59] | 5.36 |
| CC1CC(C)(C)c2cccc(NC(=O)C3=C(C(F)(F)F)OCCS3)c21 (centres unmarked) [Example 60] | 4.18 |
| CC(C)CC(C)c1ccccc1NC(=O)C1=C(C(F)(F)F)OC(C)CS1 (centres unmarked) [Example 63] | 4.27 |
| CC1CSC(C(=O)Nc2ccccc2C(C)CC(C)(C)C)=C(C(F)(F)F)O1 (centres unmarked) [Example 66] | 4.51 |
| CC1CSC(C(=O)Nc2ccc(F)cc2-c2ccc(Cl)c(Cl)c2)=C(C(F)(F)F)O1 (centres unmarked) [Example 67] | 4.32 |

| Structure (SMILES) | logP |
| --- | --- |
| CCCON=Cc1ccc(-c2ccccc2NC(=O)C2=C(C(F)(F)F)OC(C)CS2)cc1F (centres unmarked) [Example 68] | 4.77 |
| O=C(Nc1c(F)cccc1-c1cc(F)cc(F)c1)C1=C(C(F)(F)F)OCCS1 [Example 74] | 3.20 |
| CCCCCCc1ccccc1NC(=O)C1=C(C(F)(F)F)OCCS1 [Example 76] | 4.25 |
| CCCC(CC)c1ccccc1NC(=O)C1=C(C(F)(F)F)OCCS1 (centres unmarked) [Example 77] | 4.07 |
| O=C(Nc1ccccc1-c1ccc(Cl)c(Cl)c1)C1=C(C2CC2)OCCS1 [Example 80] | 3.53 |
| CC(CC(C)(C)C)c1ccccc1NC(=O)C1=C(C(F)F)OCCS1 (centres unmarked) [Example 81] | 4.29 |
| CC1CC(C)(C)c2cccc(NC(=O)C3=C(C(F)F)OCCS3)c21 (centres unmarked) [Example 83] | 4.00 |
| O=C(Nc1ccccc1-c1ccc(Cl)c(Cl)c1)C1=C(C(F)F)OCCS1 [Example 84] | 3.92 |
| CCCON=Cc1ccc(-c2ccccc2NC(=O)C2=C(C(F)F)OCCS2)cc1F [Example 85] | 4.52 |
| CCCC(CC(C)C)c1ccccc1NC(=O)C1=C(C(F)(F)F)OCCS1 (centres unmarked) [Example 87] | 4.65 |
| CCC(CC(C)C)c1ccccc1NC(=O)C1=C(C(F)(F)F)OCCS1 (centres unmarked) [Example 88] | 4.30 |
| CC(C)CC(C)c1ccccc1NC(=O)C1=C(C(F)(F)F)OCCS1(=O)=O (centres unmarked) [Example 90] | 3.53 |
| Cc1cc(Cl)ccc1-c1ccccc1NC(=O)C1=C(C(F)(F)F)OCCS1(=O)=O [Example 92] | 3.66 |
| O=C(Nc1ccccc1-c1ccc(Cl)c(Cl)c1)C1=C(C(F)(F)F)OCCS1(=O)=O [Example 93] | 3.57 |
| O=C(Nc1ccccc1-c1ccc(Cl)c(F)c1)C1=C(C(F)(F)F)OCCS1(=O)=O [Example 95] | 3.28 |
| CC(CC1CC1)c1ccccc1NC(=O)C1=C(C(F)(F)F)OCCS1 (centres unmarked) [Example 96] | 3.72 |
| CC(=O)N(C(=O)C1=C(C(F)(F)F)OCCS1)c1ccccc1C(C)CC(C)C (centres unmarked) [Example 99] | 4.56 |
| CC1(c2ccccc2NC(=O)C2=C(C(F)(F)F)OCCS2)CC1(Cl)Cl (centres unmarked) [Example 101] | 3.66 |

Next, values leading:

| logP | Structure (SMILES) |
| --- | --- |
| 3.98 | Cc1cc(-c2ccccc2NC(=O)C2=C(C(F)(F)F)OCC(C)S2)ccc1F (centres unmarked) [Example 5] |
| 4.26 | CC1COC(C(F)(F)F)=C(C(=O)Nc2ccccc2-c2ccc(Cl)c(Cl)c2)S1 (centres unmarked) [Example 6] |
| 4.30 | CC1COC(C(F)(F)F)=C(C(=O)Nc2ccccc2-c2ccc(Cl)c(C(F)(F)F)c2)S1 (centres unmarked) [Example 7] |
| 4.57 | CC(C)ON=Cc1ccc(-c2ccccc2NC(=O)C2=C(C(F)(F)F)OCC(C)S2)cc1 (centres unmarked) [Example 8] |
| 4.06 | CC1COC(C(F)(F)F)=C(C(=O)Nc2ccccc2-c2ccc(C(F)(F)F)cc2)S1 (centres unmarked) [Example 9] |
| 4.42 | CCCON=Cc1ccc(-c2ccccc2NC(=O)C2=C(C(F)(F)F)OCCS2)cc1F [Example 25] |
| 4.03 | O=C(Nc1ccccc1-c1ccc(Cl)c(C(F)(F)F)c1)C1=C(C(F)(F)F)OCCS1 [Example 30] |
| 3.35 | O=C(Nc1ccccc1-c1cc(F)cc(F)c1)C1=C(C(F)(F)F)OCCS1 [Example 32] |
| 3.85 | O=C(Nc1ccccc1-c1ccc(I)cc1)C1=C(C(F)(F)F)OCCS1 [Example 33] |
| 3.33 | C=CCC(C)c1ccccc1NC(=O)C1=C(C(F)(F)F)OCCS1 (centres unmarked) [Example 34] |
| 3.62 | Cc1ccc(-c2ccccc2NC(=O)C2=C(C(F)(F)F)OCCS2)cc1F [Example 36] |
| 3.76 | C#CCON=C(C)c1ccc(-c2ccccc2NC(=O)C2=C(C(F)(F)F)OCCS2)cc1 [Example 40] |
| 1.96 | CON=C(N)c1ccc(-c2ccccc2NC(=O)C2=C(C(F)(F)F)OCCS2)cc1 [Example 41] |
| 3.60 | O=C(Nc1ccccc1-c1cc(F)cc(Cl)c1)C1=C(C(F)(F)F)OCCS1 [Example 44] |
| 3.45 | CON=C(C)c1ccc(-c2ccccc2NC(=O)C2=C(C(F)(F)F)OCCS2)cc1Cl [Example 45] |
| 3.69 | CON=C(C)c1ccc(-c2ccccc2NC(=O)C2=C(C(F)(F)F)OCCS2)cc1F [Example 46] |
| 3.62 | CCC(CC)c1ccccc1NC(=O)C1=C(C(F)(F)F)OCCS1 [Example 51] |
| 4.08 | CC1CSC(C(=O)Nc2ccccc2-c2ccc(C(F)(F)F)cc2)=C(C(F)(F)F)O1 (centres unmarked) [Example 61] |

| logP | Structure (SMILES) |
| --- | --- |
| 3.81 | CON=Cc1ccc(-c2ccccc2NC(=O)C2=C(C(F)(F)F)OC(C)CS2)cc1 (centres unmarked) [Example 62] |
| 4.56 | CC(C)ON=Cc1ccc(-c2ccccc2NC(=O)C2=C(C(F)(F)F)OC(C)CS2)cc1 (centres unmarked) [Example 64] |
| 4.27 | CC1CSC(C(=O)Nc2ccccc2-c2ccc(Cl)c(Cl)c2)=C(C(F)(F)F)O1 (centres unmarked) [Example 65] |
| 3.99 | Cc1ccc(-c2ccccc2NC(=O)C2=C(C(F)(F)F)OC(C)CS2)cc1F (centres unmarked) [Example 69] |
| 3.99 | Cc1cc(-c2ccccc2NC(=O)C2=C(C(F)(F)F)OC(C)CS2)ccc1F (centres unmarked) [Example 70] |
| 4.08 | CC1CSC(C(=O)Nc2ccccc2-c2ccc(C(F)(F)F)c(F)c2)=C(C(F)(F)F)O1 (centres unmarked) [Example 71] |
| 3.49 | O=C(Nc1ccc(F)cc1-c1cc(F)cc(F)c1)C1=C(C(F)(F)F)OCCS1 [Example 73] |
| 3.70 | O=C(Nc1cc(F)ccc1-c1cc(F)cc(F)c1)C1=C(C(F)(F)F)OCCS1 [Example 75] |
| 2.87 | N#Cc1ccc(-c2ccccc2NC(=O)C2=C(C(F)(F)F)OCCS2)cc1 [Example 78] |
| 4.32 | CC(=CC(C)C)c1ccccc1NC(=O)C1=C(C(F)(F)F)OCCS1 [Example 89] |
| 3.35 | O=C(Nc1ccccc1-c1ccc(Br)cc1)C1=C(C(F)(F)F)OCCS1(=O)=O [Example 91] |
| 3.88 | CCC(C)C(C)c1ccccc1NC(=O)C1=C(C(F)(F)F)OCCS1 (centres unmarked) [Example 94] |
| 4.42 | CC(C)(C)C#Cc1ccccc1NC(=O)C1=C(C(F)(F)F)OCCS1 [Example 97] |
| 4.06 | Cc1cc(-c2ccccc2NC(=O)C2=C(C(F)(F)F)OCCS2)ccc1Br [Example 98] |
| 2.53 | CON=C(c1ccc(-c2ccccc2NC(=O)C2=C(C(F)(F)F)OCCS2)cc1)C(F)(F)F [Example 100] |
| 3.72 | CC(C)CCc1ccccc1NC(=O)C1=C(C(F)(F)F)OCCS1 [Example 102] |
| 3.98 | CC(C)(C)CCc1ccccc1NC(=O)C1=C(C(F)(F)F)OCCS1 [Example 103] |

same assay, conditions: reversed-phase C18 HPLC column, pH 2.3, C18, 43° C., precursors, read-out: HPLC: logP

| Structure (SMILES) | chromatographic logP |
| --- | --- |
| CC1COC(C(F)(F)F)=C(C(=O)O)S1 (centres unmarked) [Example (II-2)] | 1.69 |
| CC1CSC(C(=O)O)=C(C(F)(F)F)O1 (centres unmarked) [Example (II-3)] | 1.72 |
| CC(C)=CC(C)c1ccccc1N (centres unmarked) [Example (III-2)] | 1.19 |
| CCC(Cl)CC(C)c1ccccc1N (centres unmarked) [Example (III-3), 2-(3-Chloro-1-methylpentyl)phenylamine] | 2.3 |

same assay, conditions: reversed-phase C18 HPLC column, pH 2.3, C18, 43° C., read-out: logP (pH 2.3)

| Structure (SMILES) | chromatographic logP |
| --- | --- |
| CO/N=C/c1ccc(-c2ccccc2NC(=O)C2=C(C(F)(F)F)OCCS2)cc1 [Example 1, N-[4′-(methoxyiminomethyl)-biphenyl-2-yl]-6-trifluoromethyl-2,3-dihydro-1,4-oxathiin-5-carboxamide] | 3.51 |
| CC(CC1CC1(Cl)Cl)c1ccccc1NC(=O)C(C)(C)C (centres unmarked) [III-4a, N-{2-[2-(2,2-dichlorocyclopropyl)-1-methylethyl]-phenyl}-2,2-dimethylpropionamide] | 3.77 |
